Laboratory results as given in publication PMC12022113 (Nature Communications, 2025).
Entries after “also recorded” stand apart in the source; their conditions may differ.

Key:
[1] = test system: V2R; settings: cited from earlier work
[2] = test system: V1aR; settings: cited from earlier work
[3] = test system: OTR; settings: cited from earlier work
[4] = in vivo; cited from earlier work
[5] = target: V2R R104A mutant (Homo sapiens, UniProt P30518, R104A); type: binding
[6] = test system: V2R; settings: cited from earlier work; remark: listed apart in the source
[7] = target: V2R Q291A mutant (Homo sapiens, UniProt P30518, Q291A); type: binding
[8] = target: V2R I209A mutant (Homo sapiens, UniProt P30518, I209A); type: binding
[9] = target: V2R Q174A mutant (Homo sapiens, UniProt P30518, Q174A); type: binding
[10] = target: V2R K116A mutant (Homo sapiens, UniProt P30518, K116A); type: binding
[11] = target: V2R Q119A mutant (Homo sapiens, UniProt P30518, Q119A); type: binding
[12] = target: V2R S315A mutant (Homo sapiens, UniProt P30518, S315A); type: binding
[13] = target: V2R E184A mutant (Homo sapiens, UniProt P30518, E184A); type: binding
[14] = target: V2R D103A mutant (Homo sapiens, UniProt P30518, D103A); type: binding
[15] = target: V2R F287A mutant (Homo sapiens, UniProt P30518, F287A); type: binding

SMILES: Cc1nc2c([nH]1)-c1ccccc1N(C(=O)c1ccc(NC(=O)c3ccccc3-c3ccccc3)cc1)CC2 [Conivaptan]
- selectivity to V2R [1]: not selective to V2R
- affinity for V1aR [2]: high affinity

SMILES: CC[C@H](C)[C@@H]1C(=O)N[C@H](C2Cc3ccccc3C2)C(=O)N1[C@@H](C(=O)N1CCOCC1)c1coc(C)n1 [Retosiban]
- OTR antagonism [3]: potent OTR-selective non-peptide antagonist

SMILES: Cc1ccccc1C(=O)Nc1ccc(C(=O)N2CCCC(O)c3cc(Cl)ccc32)c(C)c1 (centres unmarked) [TVP, 7-Chloro-5-hydroxy-1-[2-methyl-4-(2-methylbenzoylamino)benzoyl]-2,3,4,5-tetrahydro-1 H -1-benzazepine]
- liver injury [4]: serious and potentially fatal liver injury
- urine volume [4]: increasing the amount of urine volume
- effect of mutation (loss or gain vs WT) [5]: less than 5 fold
- effect of mutation on affinity [5]: very limited effect or were without effect
- efficacy toward the Gs/cAMP pathway [6]: inverse agonist
- inhibition of V2R-dependent signaling pathways [6]: inhibit V2R-dependent signaling pathways
- effect of mutation (loss or gain vs WT) [7]: less than 5 fold
- effect of mutation on affinity [7]: moderate change in binding affinity
- affinity for V2R [1]: high affinity
- effect of mutation (loss or gain vs WT) [8]: less than 5 fold
- effect of mutation on affinity [8]: very limited effect or were without effect
- effect of mutation on affinity [9]: significant decrease in TVP affinity
- effect of mutation on affinity [10]: moderate change in binding affinity; also recorded: less pronounced regarding TVP affinity, but was significant
- effect of mutation on affinity [11]: significant gain in affinity
- effect of mutation (loss or gain vs WT) [12]: less than 5 fold
- effect of mutation on affinity [12]: very limited effect or were without effect
- effect of mutation (loss or gain vs WT) [13]: less than 5 fold
- effect of mutation on affinity [13]: very limited effect or were without effect
- effect of mutation (loss or gain vs WT) [14]: less than 5 fold
- effect of mutation on affinity [15]: moderate change in binding affinity
